Values of other authors in article PMC12251151, “Understanding Anti-Obesity Potential of Four Porphyrin Compounds by Investigating Pancreatic Lipase Inhibition” (Molecules, 2025).

What was measured:
[1] = target: α-glucosidase; set-up: method as in PMID 36603279; settings: read-out: IC50 inhibiting α-glucosidase; cited from earlier work
[2] = target: α-amylase; set-up: method as in PMID 36603279; settings: read-out: IC50 inhibiting α-amylase; cited from earlier work

COc1ccc([C@@H]2CC(=O)c3c(O)cc(O)cc3O2)cc1O [Hsp, hesperetin]
IC50 [1]: 55.2 ± 0.1 µM
IC50 [2]: 115.6 ± 1.1 µM
